Literature values in patent US7195882B2, “Monoclonal antibodies specific for buprenorphine and metabolites thereof” (priority 2003, dated 2007).

Settings: in vivo

CO[C@]12CC[C@@]3(C[C@@H]1[C@](C)(O)C(C)(C)C)[C@H]1Cc4ccc(O[C@@H]5O[C@H](C(=O)O)[C@@H](O)[C@H](O)[C@H]5O)c5c4[C@@]3(CCN1CC1CC1)[C@H]2O5 [buprenorphine glucuronide, buprenorphine 3-O-β-D-glucuronide]
appearance in urine: 1 to 2 days
